In assay [1] the target is T1, Short transient receptor potential channel 4 (Mus musculus, UniProt Q9QUQ5).
T1 sequence (Q9QUQ5 whole entry): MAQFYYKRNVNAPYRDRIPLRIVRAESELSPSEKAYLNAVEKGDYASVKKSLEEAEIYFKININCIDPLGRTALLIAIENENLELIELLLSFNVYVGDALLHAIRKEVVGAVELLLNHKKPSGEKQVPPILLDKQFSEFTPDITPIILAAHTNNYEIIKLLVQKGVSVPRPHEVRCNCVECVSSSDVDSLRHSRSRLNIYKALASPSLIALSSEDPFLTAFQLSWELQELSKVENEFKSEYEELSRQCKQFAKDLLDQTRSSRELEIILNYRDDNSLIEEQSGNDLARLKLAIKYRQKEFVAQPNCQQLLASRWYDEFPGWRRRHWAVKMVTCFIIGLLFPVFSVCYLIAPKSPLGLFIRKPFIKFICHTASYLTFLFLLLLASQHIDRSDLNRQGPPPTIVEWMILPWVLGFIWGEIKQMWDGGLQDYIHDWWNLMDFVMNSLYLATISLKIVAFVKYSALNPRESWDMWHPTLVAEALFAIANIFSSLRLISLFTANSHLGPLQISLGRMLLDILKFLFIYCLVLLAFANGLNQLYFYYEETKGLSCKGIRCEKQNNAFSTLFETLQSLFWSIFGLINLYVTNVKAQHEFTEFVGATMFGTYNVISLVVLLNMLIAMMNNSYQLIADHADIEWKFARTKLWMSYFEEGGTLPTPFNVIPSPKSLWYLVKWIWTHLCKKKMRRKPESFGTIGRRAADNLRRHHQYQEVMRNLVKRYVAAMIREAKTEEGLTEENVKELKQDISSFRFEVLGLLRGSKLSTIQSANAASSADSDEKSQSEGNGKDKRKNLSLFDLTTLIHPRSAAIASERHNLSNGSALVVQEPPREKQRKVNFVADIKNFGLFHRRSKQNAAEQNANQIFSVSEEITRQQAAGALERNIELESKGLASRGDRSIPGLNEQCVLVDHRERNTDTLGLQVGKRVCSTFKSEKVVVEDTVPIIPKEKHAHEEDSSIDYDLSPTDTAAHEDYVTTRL
In words: mouse TRPC4 channel inhibitors, dose response, cell-based, HEK293 TRPC4/mu-opioid, Fluo-4 calcium (AID 434942).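 Also: potency of inhibitors blocking the TRPC4 calcium response.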 Type of assay: functional.

Assay [2] can be described thus: cytotoxicity in HEK-293T cells, dose response, cytotoxicity control for TCR NF-kB inhibitor project, luminescence, T-cell screen hits (AID 489026).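 Also: cells exposed to compound about 14 hours before the viability readout.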 Type of assay: functional, cell-based.
Assay [3] can be described thus: cells.
The nature of assay [4]: HEp-2 cell cytotoxicity, dose response, cytotoxicity control for RSV inhibitor project, HTS (AID 2410). The class given is functional. Conditions: human respiratory syncytial virus.
The test system of assay [5] is Vero. In words: cells. Type of assay: functional, cell-based. The conditions noted are these: Chlorocebus sabaeus.
For assay [6], the target named is Glyceraldehyde-3-phosphate dehydrogenase (Homo sapiens, UniProt P04406).
Glyceraldehyde-3-phosphate dehydrogenase, sequence (P04406 whole entry): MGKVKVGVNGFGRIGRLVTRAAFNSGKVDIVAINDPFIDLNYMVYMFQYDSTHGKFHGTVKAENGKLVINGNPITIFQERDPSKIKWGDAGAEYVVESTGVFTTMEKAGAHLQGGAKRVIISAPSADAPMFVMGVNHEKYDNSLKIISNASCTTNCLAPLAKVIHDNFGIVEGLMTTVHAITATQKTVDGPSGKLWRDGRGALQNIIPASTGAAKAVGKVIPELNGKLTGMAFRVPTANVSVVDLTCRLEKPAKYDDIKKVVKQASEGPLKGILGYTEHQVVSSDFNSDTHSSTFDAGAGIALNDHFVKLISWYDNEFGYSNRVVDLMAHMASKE
The subject of assay [7] is Escherichia coli. Nature of the assay: microbe, parasite or virus in culture.
Assay [8] concerns Escherichia coli. In words: microbe, parasite or virus in culture. This is another data set of the same source.
Assay [9] concerns the target Glucose-6-phosphate 1-dehydrogenase (Homo sapiens, UniProt P11413). In words: human G6PD enzyme inhibitors, dose response, selectivity assay for P. falciparum G6PD inhibitor project, biochemical, fluorescence (AID 504792). Type of assay: functional.
The subject of assay [10] is BJ. Nature of the assay: cytotoxicity toward BJ-TERT fibroblasts, dose response, cell-based, RAS-independent, luminescence (AID 1933). Type of assay: functional. Conditions: Homo sapiens.
Assay [11] deals with BJ. Nature of the assay: cytotoxicity toward BJ-TERT-LT-ST fibroblasts, dose response, cell-based, RAS-independent, luminescence (AID 1935).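 Also: BJ fibroblasts immortalized with TERT plus LT and ST oncogenes.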 Type of assay: functional. The conditions noted are these: Homo sapiens.
Assay [12] is described as follows: Luminescence Cell-Based Dose Response HTS to Identify Inhibitors of 5'UTR Stem-Loop Driven Prion Protein mRNA Translation in H4 Neuroglioblastoma Cells. [Related pubchem assays: 1827 (Project Summary), 1813 (Primary HTS)]. Type of assay: functional.
The nature of assay [13]: cytotoxicity toward DRD oncogenic fibroblasts, dose response, cell-based, non-viral oncogenic, luminescence (AID 1934). The class given is functional. The conditions noted are these: Homo sapiens.
The nature of assay [14]: inhibitors of firefly luciferase expression or activity, dose response, H4 neuroglioma cells, luminescence (AID 1990). Type of assay: functional, cell-based.
The subject of assay [15] is BJ. In words: cells. The class given is functional, cell-based. Conditions: Homo sapiens.
Assay [16] addresses T2, Alkaline phosphatase, tissue-nonspecific isozyme (Homo sapiens, UniProt P05186).
T2 sequence (P05186 whole entry): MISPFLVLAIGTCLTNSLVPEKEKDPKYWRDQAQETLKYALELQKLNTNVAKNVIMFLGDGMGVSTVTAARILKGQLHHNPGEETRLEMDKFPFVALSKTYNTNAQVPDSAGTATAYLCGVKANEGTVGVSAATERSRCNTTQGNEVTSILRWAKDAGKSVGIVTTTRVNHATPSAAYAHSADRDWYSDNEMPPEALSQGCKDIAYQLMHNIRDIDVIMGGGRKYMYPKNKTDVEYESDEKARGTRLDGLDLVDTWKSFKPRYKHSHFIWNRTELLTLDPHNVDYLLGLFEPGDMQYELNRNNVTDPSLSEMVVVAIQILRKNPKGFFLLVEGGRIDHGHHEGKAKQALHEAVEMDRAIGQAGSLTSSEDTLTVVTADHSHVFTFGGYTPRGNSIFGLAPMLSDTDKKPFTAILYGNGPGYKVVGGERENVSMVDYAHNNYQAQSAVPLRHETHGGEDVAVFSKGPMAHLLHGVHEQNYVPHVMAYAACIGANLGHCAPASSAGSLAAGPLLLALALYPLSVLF
In words: human TNAP enzyme inhibitors, SAR follow-up, biochemical, luminescent, dose response (AID 1056).

The subject of assay [17] is Streptococcus. In words: Group A Streptococcus viability loss, dose response, counter-screen for streptokinase expression inhibitor project, luminescence, BacTiterGlo (AID 1915).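 Also: potency for reduction of bacterial viability or growth.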 Type of assay: functional, organism-based.
Assay [18] deals with Streptococcus sp. 'group A'. Nature of the assay: growth inhibition of control SK(-) GAS strain, dose response, counter-screen for streptokinase expression inhibitor project, luminescence, kanamycin, BacTiterGlo, confirmation (AID 1900). The class given is functional, organism-based. (In general: The purpose of a counterscreen is to sort out artefacts and off-target activity.)

The target of assay [19] is T3, Streptokinase A (Streptococcus pyogenes serotype M1, UniProt P10520).
T3 sequence (P10520 whole entry): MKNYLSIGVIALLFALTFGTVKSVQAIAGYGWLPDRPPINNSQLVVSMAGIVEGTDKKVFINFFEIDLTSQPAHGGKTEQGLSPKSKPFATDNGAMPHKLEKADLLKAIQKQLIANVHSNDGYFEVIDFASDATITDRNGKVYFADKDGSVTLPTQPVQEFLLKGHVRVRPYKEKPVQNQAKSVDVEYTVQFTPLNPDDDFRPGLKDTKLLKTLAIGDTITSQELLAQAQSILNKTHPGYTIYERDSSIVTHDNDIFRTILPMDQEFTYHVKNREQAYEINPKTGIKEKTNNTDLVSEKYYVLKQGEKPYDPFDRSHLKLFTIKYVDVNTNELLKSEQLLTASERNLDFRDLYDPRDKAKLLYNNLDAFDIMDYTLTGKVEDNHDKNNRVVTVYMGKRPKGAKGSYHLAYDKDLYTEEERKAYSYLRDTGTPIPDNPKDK
Nature of the assay: S. pyogenes streptokinase expression inhibitors, potency, dose response, plasminogen activation absorbance, OD405 (AID 1914).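 Also: secreted streptokinase activity via plasminogen activation per viability signal from cell pellet.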 Type of assay: functional, Streptococcus pyogenes M1 GAS.

Assay [20] has as its target T4, Rac GTPase-activating protein 1 (Homo sapiens, UniProt Q9H0H5).
T4 sequence (Q9H0H5 whole entry): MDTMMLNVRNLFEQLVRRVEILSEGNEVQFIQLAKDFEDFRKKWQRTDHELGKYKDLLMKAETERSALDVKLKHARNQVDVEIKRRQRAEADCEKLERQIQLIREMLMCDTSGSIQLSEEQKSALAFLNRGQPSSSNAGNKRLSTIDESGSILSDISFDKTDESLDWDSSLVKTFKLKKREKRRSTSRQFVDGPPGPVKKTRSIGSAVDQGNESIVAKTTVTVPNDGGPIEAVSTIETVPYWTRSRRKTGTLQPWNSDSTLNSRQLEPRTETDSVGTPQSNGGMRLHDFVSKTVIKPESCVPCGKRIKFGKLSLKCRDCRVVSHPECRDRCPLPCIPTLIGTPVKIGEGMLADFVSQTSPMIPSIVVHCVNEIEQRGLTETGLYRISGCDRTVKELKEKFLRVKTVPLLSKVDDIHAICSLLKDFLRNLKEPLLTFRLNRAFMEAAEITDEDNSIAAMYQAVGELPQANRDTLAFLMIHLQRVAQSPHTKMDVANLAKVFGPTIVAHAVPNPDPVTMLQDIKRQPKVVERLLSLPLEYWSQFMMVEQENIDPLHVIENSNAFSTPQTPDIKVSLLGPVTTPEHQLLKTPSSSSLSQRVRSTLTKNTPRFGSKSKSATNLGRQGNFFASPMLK
Nature of the assay: MgcRacGAP GTPase-activating activity inhibitors, confirmation, biochemical, ADP Hunter fluorescence, primary and confirmatory (AID 624330). Type of assay: functional.

Assay [21] relates to HEK293. Nature of the assay: NOD1 signaling inhibitors, primary screen, cell-based, luminescence, uHTS (AID 1578). Type of assay: functional. Conditions: Homo sapiens.
For assay [22], the system named is HEK293. Nature of the assay: cells. The conditions noted are these: Homo sapiens. Type of assay: functional, cell-based.
Assay [23] concerns HEK293. In words: cells. The class given is functional, cell-based. Conditions: Homo sapiens. The source holds these as a separate data set.
For assay [24], the system named is HEK293. Nature of the assay: NOD2 signaling inhibitors in MDP-stimulated cells, cell-based, uHTS, luminescence (AID 2001). The class given is functional. Conditions: Homo sapiens.
Assay [25] can be described thus: inhibitors of clade B AD8 Env fusion, dose response, cell-based, cherry-pick (AID 652062).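 Also: luciferase signal from cell-cell fusion driven by HIV-1 clade B AD8 Env; potency is for inhibitors of fusion seen as a drop in luminescence.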 The class given is functional.

This is an account of results in ChEMBL document CHEMBL1201862, “PubChem BioAssay data set” (2004).

Calls of active or inactive are those of the source.

Glucose-6-phosphate 1-dehydrogenase, sequence (P11413 whole entry): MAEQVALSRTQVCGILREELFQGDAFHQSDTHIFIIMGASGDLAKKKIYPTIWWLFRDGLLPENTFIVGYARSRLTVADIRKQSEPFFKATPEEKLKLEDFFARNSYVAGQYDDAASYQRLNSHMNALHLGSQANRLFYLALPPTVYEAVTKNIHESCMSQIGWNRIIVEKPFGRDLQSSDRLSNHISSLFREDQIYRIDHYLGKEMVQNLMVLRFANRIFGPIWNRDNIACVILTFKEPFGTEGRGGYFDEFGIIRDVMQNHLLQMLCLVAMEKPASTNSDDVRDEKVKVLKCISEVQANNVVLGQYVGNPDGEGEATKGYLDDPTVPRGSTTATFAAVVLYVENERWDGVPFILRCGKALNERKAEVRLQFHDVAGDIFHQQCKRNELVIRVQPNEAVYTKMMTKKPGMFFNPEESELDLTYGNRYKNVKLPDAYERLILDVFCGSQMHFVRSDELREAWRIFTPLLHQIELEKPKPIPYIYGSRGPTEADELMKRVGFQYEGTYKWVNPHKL

The term EC50 denotes the concentration giving half of the maximal effect. On to `Cc1ccccc1Cn1c(=N)n(CC(O)c2ccco2)c2ccccc21` (configuration not stated), for which the EC50 in assay [1] is 0.668 µM (active).
The IC50 is the concentration that inhibits the measured activity by half. Take `Cc1ccc2[nH]c(-c3cccc(F)c3)cc(=O)c2c1`: the IC50 in assay [2] was > 80 µM (inactive).
By CC50 is commonly meant the concentration that lowers cell viability or growth by half. Take `Cc1cc(NC(=O)C(C)SCC(=O)N(Cc2ccccc2)c2ccccc2)no1` (configuration not stated): the figures for the IC50 in assay [3] and in assay [5] were 39.6 µM (active) and > 25 µM (active), respectively. In addition, the 50% cytotoxic concentration (CC50) in [4] was 29.9 µM (active).
As for `COc1cccc(N2C(=O)C(Cl)=C(N3CCN(C/C=C/c4ccccc4)CC3)C2=O)c1`, in assay [6], the IC50 was > 50 µM (inconclusive).
In the case of `CCCCc1nc2ccccc2c(N)c1CCC.O=C(O)c1cc([N+](=O)[O-])ccc1Cl`, in [1], the EC50 was 1.19 µM (active).
One may read the AC50 as the concentration at which the activity in the assay is half-maximal. As to `Cn1c(C(=O)OCC(=O)NCC2CCCO2)cc2sccc21` (configuration not stated), the figures for the half-maximal activity concentration (AC50) in assay [7] and in [8] were 25.8 µM (active) and 149 µM (active), respectively.
On to `CCOc1ccccc1NS(=O)(=O)c1c(C)noc1C`, for which the IC50 in [9] is > 80 µM (inactive).
Consider `C=CCOc1cccc(C(=O)N2CCCC(CCC(=O)NCc3ccccc3F)C2)c1` (configuration not stated), for which the concentration at half-maximal activity (AC50) in [8] is 41.3 µM (active).
As for `c1ccc(OCc2nnc3n2N=C(c2ccccc2)CS3)cc1`, the IC50 in assay [9] was > 80 µM (inactive).
On to `Clc1ccc(-c2csc(-c3cccnc3)n2)s1`, for which the half-maximal activity concentration (AC50) in [8] is 276 µM (active).
For `COc1ccc(C2=NOC(C(=O)NCc3ccc(F)cc3)C2)cc1OC` (configuration not stated), in assay [2], the IC50 was > 80 µM (inactive). The EC50 in assay [10] is 1.54 µM (inconclusive); in [11], 5.72 µM (inconclusive); in [12], > 120 µM (not active); in [13], 18.3 µM (active); in [14] it was 11.2 µM (active); in assay [15] it was 26 µM (active).
For `O=C1C2CC=CCC2C(=O)N1c1nc[nH]n1` (configuration not stated), the IC50 in [16] is > 100 µM (inactive); in assay [6], > 100 µM (not active).
Take `Oc1ccccc1-c1nc2c3ccccc3c3ccccc3c2[nH]1`: the IC50 in [3] was 11 µM (active). Also, the EC50 is 12 µM (active) in [17], 2.55 µM (active) in assay [18] and 4.11 µM (active) in [19]. The half-maximal cytotoxic concentration (CC50) in assay [4] was 15.3 µM (active).
Take `c1cc2c(cc1NC1CCCCCC1)OCO2`: the values for the IC50 in [20] and in [9] were 48.4 µM (active) and > 80 µM (inactive), respectively.
On to `C/C(Cn1nnc([N+](=O)[O-])n1)=N\NC(=O)c1ccc(O)cc1O`, for which the concentration at half-maximal activity (AC50) in [7] is 84.9 µM (active). Besides, the IC50 in [9] is > 80 µM (inactive).
Consider `O=C(CSc1nc2ccccc2c(=O)n1CCCO)N1CCc2ccccc21`, for which, in assay [1], the 50% effective concentration (EC50) was 0.596 µM (active).
As for `O=C(Nc1nc(-c2ccc3c(c2)OCO3)cs1)c1ccncc1`, the EC50 in [21] was 3.32 µM (active). The IC50 in assay [22] is 4.5 µM (active); in assay [23], 11 µM (active); in [24], 4.79 µM (active). In [25], the AC50 was 4.67 µM (active).
